In patent publication US20240108578A1, “COMPOSITION IN WHICH ABSORBABILITY OF POORLY ABSORBABLE DRUG IS IMPROVED” (MEDRx Co., Ltd., priority 2021, published 2024):

Assay: Dissolution of drug in ionic liquid checked under a microscope
Assay type: physicochemical
Conditions: 1.4 mg in 0.5 mL ionic liquid formulation, heated at 65° C. for 10 minutes
Experimental: According to the method of Example 1, the preparations of Examples 1, 4 and 5 comprising Lixisenatide as poorly absorbable drug were prepared. Specifically, the ingredients were mixed in the amounts (molar ratios) shown in the above Table 1 to prepare each ionic liquid formulation. Lixisenatide (1.4 mg) was added into the prepared ionic liquid formulation (0.5 mL) and the mixture was heated and dissolved at 65° C. for 10 minutes to prepare each preparation.
When Lixisenatide was mixed with an ionic liquid and checked the state under a microscope, it was determined that Lixisenatide was dissolved because the crystal of Lixisenatide disappeared by heating.
According to the method of Example 1, the preparations of Preparation Examples 1 to 3 and 22 to 23 comprising Lixisenatide as poorly absorbable drug were prepared. Specifically, the ingredients were mixed in the amounts (molar ratios) shown in Table 2 below to prepare each ionic liquid formulation, Semaglutide (1.4 mg) was added into the prepared ionic liquid formulation (0.5 mL), and the mixture was heated and dissolved at 65° C. for 10 minutes to prepare each preparation.
When Semaglutide was mixed with an ionic liquid and checked the state under a microscope, it was determined that Semaglutide was dissolved because the crystal of Semaglutide disappeared by heating.

state of the drug mixed with an ionic liquid under a microscope	Substance
dissolved	Semaglutide
dissolved	Lixisenatide
